For one compound, IC50 results are on record in patent publication US6958345B2, “2-hydroxymethylcyclopropylidene methylpurines and -pyrimidines as antiviral agents” (The Regents of the University of Michigan, priority 1997, dated 2005).

This experiment concerns HHV-6. The experiment in a line: HHV-6 ELISA in HSB-2 cells. To be noted: Homo sapiens, HSB2. It is filed as cell-based, human herpes virus 6 (HHV 6). The protocol:
(c) HHV-6. In this case, enzyme-linked immunosorbent assay (ELISA) was performed in covalent amine plates (Costar, Cambridge, Mass.). The plates were activated by the addition of a homobifunctional crosslinking agent, bis(sulfosuccinimidyl) suberate, which was dissolved at 1 mg/mL in 30 mL of phosphate buffered saline (PBS: 137 mM NaCl, 2.7 mM KCl, 4.3 mM Na2HPO4, 1.4 mM KH2PO4, pH 7.4) and 300 μL of the crosslinker was added to each well in the covalent plate. The crosslinker reacted with the amine function on the plate for 30 min at room temperature. The byproduct, sodium N-hydroxysuccinimide sulfite, was removed by decanting and washing the plate twice with PBS. Samples consisting of 150 μl of mixed suspended HSB2 cells from the original drug-treated plate were solubilized in an equal volume of 10% Triton X-100 in coating buffer (15 mM Na2CO3, […] NaHCO3, pH 9.6). The plate was covered and then incubated for 1 h at 37° C. in a 5% CO2 atmosphere. These binding conditions facilitated covalent attachment of the antigen to the free end of the crosslinker.
After covalent binding, the antigen solution was decanted and the plate was washed six times in HEPES buffered saline (Shipman, C., Jr., Proc. Soc. Exp. Biol. 130:305-310 (1969)) with 0.05% Tween 20 (HBS-T ), soaking for three min for each wash. […] Absorbance in each well was determined at 450/570 nm.

`O=C(O)P(=O)(O)O` [Foscarnet, reference compound] displayed an IC50 of 15 µM.
